# Patent publication US12161722B2, “Bifunctional heterocyclic compound having BTK degradation function via ubiquitin proteasome pathway, and use thereof” (KOREA RESEARCH INSTITUTE OF CHEMICAL TECHNOLOGY, priority 2021, dated 2024)
# Molecular target: T1, WT BTK protein (Homo sapiens, UniProt Q06187)
# T1 construct: measured for intracellular BTK protein levels by Western blotting; endogenous in cells; host or cells: TMD-8 or RAMOS cells
# Experiment: BTK protein degradation assay (Western blotting), WT BTK
# Type: cell-based
# Details: concentration range accounting for 50% degradation of WT BTK protein, TMD-8 or RAMOS cells, 24 hours
# Summary of the method: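 TMD-8 cells (1×10^6 cells/mL) treated 24 h with compound serial dilutions, then lysed in RIPA. Equal protein loads analysed by Western blot for BTK with GAPDH/β-actin as loading controls; activity binned by concentration giving 50% WT BTK degradation.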
# T1 sequence (Q06187 whole entry): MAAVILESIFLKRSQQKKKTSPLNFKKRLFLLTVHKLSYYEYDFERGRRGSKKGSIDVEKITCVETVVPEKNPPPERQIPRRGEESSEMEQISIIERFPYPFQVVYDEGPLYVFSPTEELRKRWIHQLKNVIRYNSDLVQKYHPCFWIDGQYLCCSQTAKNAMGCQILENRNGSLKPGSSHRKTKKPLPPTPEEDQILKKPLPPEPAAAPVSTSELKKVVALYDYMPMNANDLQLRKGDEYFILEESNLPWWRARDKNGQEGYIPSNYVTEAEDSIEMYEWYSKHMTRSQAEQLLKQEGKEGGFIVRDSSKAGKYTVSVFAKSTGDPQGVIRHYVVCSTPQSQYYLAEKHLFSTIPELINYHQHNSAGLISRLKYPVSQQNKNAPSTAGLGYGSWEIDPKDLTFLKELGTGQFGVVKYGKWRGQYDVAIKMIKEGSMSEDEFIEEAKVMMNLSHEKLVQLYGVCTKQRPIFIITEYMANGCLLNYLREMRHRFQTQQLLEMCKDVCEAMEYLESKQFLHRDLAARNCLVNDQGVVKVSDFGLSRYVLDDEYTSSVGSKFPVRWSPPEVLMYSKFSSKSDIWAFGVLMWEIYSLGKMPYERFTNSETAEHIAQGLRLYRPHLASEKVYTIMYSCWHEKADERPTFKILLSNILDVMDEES
row,DC50 [nM],SMILES
1,0.1 to 10,"Cc1cccc(C)c1Nc1nn(C)c2nc(Nc3ccc(C4CCN(CC5CCN(c6ccc7c(c6)C(=O)N(C6CCC(=O)NC6=O)C7=O)CC5)CC4)nc3)ncc12 (centres unmarked) [Compound 164, 5-(4-((4-(5-((3-((2,6-Dimethylphenyl)amino)-1-methyl-1H-pyrazolo[3,4-d]pyrimidin-6-yl)amino)pyridin-2-yl)piperidin-1-yl)methyl)piperidin-1-yl)-2-(2,6-dioxopiperidin-3-yl)isoindoline-1,3-dione]"
2,0.1 to 10,"Cc1cccc(C)c1Nc1nn(C)c2nc(Nc3ccc(C4CCN(CC5CCN(c6ccc7c(c6)C(=O)N(C6CCC(=O)NC6=O)C7=O)CC5)CC4)cc3)ncc12 (centres unmarked) [Compound 165, 5-(4-((4-(4-((3-((2,6-Dimethylphenyl)amino)-1-methyl-1H-pyrazolo[3,4-d]pyrimidin-6-yl)amino)phenyl)piperidin-1-yl)methyl)piperidin-1-yl)-2-(2,6-dioxopiperidin-3-yl)isoindoline-1,3-dione]"
3,0.1 to 10,"Cc1cccc(C)c1Nc1nn(C)c2nc(Nc3ccc(C4CCN(C[C@H]5CCN(c6ccc7c(c6)C(=O)N(C6CCC(=O)NC6=O)C7=O)C5)CC4)cc3)ncc12 (stereo partly drawn) [Compound 166, 5-((R)-3-((4-(4-((3-((2,6-Dimethylphenyl)amino)-1-methyl-1H-pyrazolo[3,4-d]pyrimidin-6-yl)amino)phenyl)piperidin-1-yl)methyl)pyrrolidin-1-yl)-2-(2,6-dioxopiperidin-3-yl)isoindoline-1,3-dione]"
4,0.1 to 10,"Cc1cccc(C)c1Nc1nn(C)c2nc(Nc3ccc(C4CCN(C[C@@H]5CCN(c6ccc7c(c6)C(=O)N(C6CCC(=O)NC6=O)C7=O)C5)CC4)cc3)ncc12 (stereo partly drawn) [Compound 167, 5-((S)-3-((4-(4-((3-((2,6-Dimethylphenyl)amino)-1-methyl-1H-pyrazolo[3,4-d]pyrimidin-6-yl)amino)phenyl)piperidin-1-yl)methyl)pyrrolidin-1-yl)-2-(2,6-dioxopiperidin-3-yl)isoindoline-1,3-dione]"
5,0.1 to 10,"Cc1cccc(C)c1Nc1nn(C)c2nc(Nc3ccc(C4CCN(C5CCN(c6ccc7c(c6)C(=O)N(C6CCC(=O)NC6=O)C7=O)CC5)CC4)cc3)ncc12 (centres unmarked) [Compound 168, 5-(4-(4-((3-((2,6-Dimethylphenyl)amino)-1-methyl-1H-pyrazolo[3,4-d]pyrimidin-6-yl)amino)phenyl)-[1,4′-bipyridin]-1′-yl)-2-(2,6-dioxopiperidin-3-yl)isoindoline-1,3-dione]"

# More lines, now with the values behind:
row,SMILES,DC50 [nM]
1,"Cc1cccc(C)c1Nc1nn(C)c2nc(Nc3ccc(N4CCN(C[C@@H]5CCCN(c6ccc7c(c6)C(=O)N(C6CCC(=O)NC6=O)C7=O)C5)CC4)nc3)ncc12 (stereo partly drawn) [Compound 161, 5-((S)-3-((4-(5-((3-((2,6-Dimethylphenyl)amino)-1-methyl-1H-pyrazolo[3,4-d]pyrimidin-6-yl)amino)pyridin-2-yl)piperazin-1-yl)methyl)piperidin-1-yl)-2-(2,6-dioxopiperidin-3-yl)isoindoline-1,3-dione]",0.1 to 10
2,"Cc1cccc(C)c1Nc1nn(C)c2nc(Nc3ccc(N4CCN(CC5CCN(c6ccc7c(c6)C(=O)N(C6CCC(=O)NC6=O)C7=O)CC5)CC4)cn3)ncc12 (centres unmarked) [Compound 162, 5-(4-((4-(6-((3-((2,6-Dimethylphenyl)amino)-1-methyl-1H-pyrazolo[3,4-d]pyrimidin-6-yl)amino)pyridin-3-yl)piperazin-1-yl)methyl)piperidin-1-yl)-2-(2,6-dioxopiperidin-3-yl)isoindoline-1,3-dione]",10 to 1000
3,"Cc1cccc(C)c1Nc1nn(C)c2nc(Nc3ccc(N4CCN(CC5CCN(c6ccc7c(c6)C(=O)N(C6CCC(=O)NC6=O)C7=O)CC5)CC4)cc3)ncc12 (centres unmarked) [Compound 163, 5-(4-((4-(4-((3-((2,6-Dimethylphenyl)amino)-1-methyl-1H-pyrazolo[3,4-d]pyrimidin-6-yl)amino)phenyl)piperazin-1-yl)methyl)piperidin-1-yl)-2-(2,6-dioxopiperidin-3-yl)isoindoline-1,3-dione]",0.1 to 10
